This note sets out measurements from article PMC5224880, “Discovery and Molecular Basis of a Diverse Set of Polycomb Repressive Complex 2 Inhibitors Recognition by EED” (PLoS ONE, 2017).

By IC50 is commonly meant the concentration that gives 50% inhibition.

One test addresses T1, NSD2 (Homo sapiens, UniProt O96028).
T1 sequence (O96028 1-1365): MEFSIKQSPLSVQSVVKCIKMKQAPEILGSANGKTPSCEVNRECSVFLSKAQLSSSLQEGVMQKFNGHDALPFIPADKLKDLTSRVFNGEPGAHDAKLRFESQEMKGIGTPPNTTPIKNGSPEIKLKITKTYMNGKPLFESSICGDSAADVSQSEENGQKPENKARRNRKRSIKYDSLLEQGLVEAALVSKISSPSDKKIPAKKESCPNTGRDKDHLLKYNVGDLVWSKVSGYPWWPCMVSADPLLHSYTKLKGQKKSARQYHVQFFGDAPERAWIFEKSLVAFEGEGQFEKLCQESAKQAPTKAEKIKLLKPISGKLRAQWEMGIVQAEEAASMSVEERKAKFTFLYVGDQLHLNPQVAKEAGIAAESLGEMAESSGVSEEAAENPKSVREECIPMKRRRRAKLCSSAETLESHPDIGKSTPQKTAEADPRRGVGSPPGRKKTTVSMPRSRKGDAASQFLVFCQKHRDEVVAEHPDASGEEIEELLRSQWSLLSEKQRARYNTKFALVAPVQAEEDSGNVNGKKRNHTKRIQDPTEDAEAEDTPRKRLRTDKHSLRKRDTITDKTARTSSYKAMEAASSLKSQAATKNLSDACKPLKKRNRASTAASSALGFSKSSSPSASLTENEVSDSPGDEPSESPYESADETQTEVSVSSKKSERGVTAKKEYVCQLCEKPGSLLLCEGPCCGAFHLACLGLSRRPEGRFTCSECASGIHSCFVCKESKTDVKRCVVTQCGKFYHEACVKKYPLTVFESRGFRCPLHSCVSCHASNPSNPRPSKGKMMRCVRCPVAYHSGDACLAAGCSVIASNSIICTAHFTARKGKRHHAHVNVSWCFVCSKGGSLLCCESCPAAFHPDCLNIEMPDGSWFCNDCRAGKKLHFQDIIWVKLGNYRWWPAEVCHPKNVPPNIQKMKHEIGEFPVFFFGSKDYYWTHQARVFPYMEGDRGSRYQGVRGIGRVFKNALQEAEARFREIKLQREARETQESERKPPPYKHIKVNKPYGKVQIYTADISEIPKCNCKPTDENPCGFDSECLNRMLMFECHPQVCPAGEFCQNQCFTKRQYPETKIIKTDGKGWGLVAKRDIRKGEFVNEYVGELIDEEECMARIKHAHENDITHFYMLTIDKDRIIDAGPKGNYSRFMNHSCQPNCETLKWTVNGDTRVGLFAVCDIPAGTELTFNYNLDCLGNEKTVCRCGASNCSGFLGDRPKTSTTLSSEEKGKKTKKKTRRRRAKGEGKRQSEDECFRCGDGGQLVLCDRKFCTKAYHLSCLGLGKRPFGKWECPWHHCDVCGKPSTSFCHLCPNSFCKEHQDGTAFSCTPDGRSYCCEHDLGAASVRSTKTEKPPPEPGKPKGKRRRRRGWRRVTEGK
Briefly: HMT panel selectivity: NSD2. It counts as biochemical. On the procedure:
Note: for EZH2, EZH2/EED/SUZ12/RBAP48/AEBP2 was used in the assay; for EZH1, EZH1/EED/SUZ12/RBAP48/AEBP2 was used in the assay; for MLL, MLL/WDR5/RBBP5/ASH2L/ was use in the assay. a, H3K27me0 peptide was used as substrate for both EZH2 and EZH1 activity; b, H3K27me1 peptide was used as substrate for both EZH2 and EZH1 activity. All HMT reactions were performed as described previously. ref: Proc Natl Acad Sci U S A. 2012 Dec 26;109(52):21360-5.

The target in another test is T2, His-EED (residues 1–441) (Homo sapiens, UniProt O75530).
T2 construct: 30 nM His-EED (residues 1–441) protein
The test can be described thus: biochemical. The settings on record: 30 nM His-EED, 15 nM biotin-H3K27me3 (19–33) peptide; read-out: IC50, EED-H3K27me3 AlphaScreen competition binding assay. In general terms: In Alpha technology, singlet oxygen from a donor bead excites a nearby acceptor bead.

Another test deals with recombinant EED (Homo sapiens, UniProt O75530). Briefly: ITC binding analysis. The conditions noted are these: 25°C. On the procedure: ITC experiments were performed on an Auto ITC200 (Microcal) at 25°C. The ITC sample cell was filled with 10 μM PRC2 in titration buffer containing 25 mM HEPES pH8.0, 150 mM NaCl, and 1% DMSO. 40 μL of 100 μM compounds in the same titration buffer was loaded in the ITC syringe. 19 injections, each of 2 μL, was injected into the ITC cell at 150 s intervals. Binding constant (K) and binding enthalpy (ΔH) determinations were obtained from the fit to the experimental data using a one-site model.
Both isothermal calorimetry (ITC) and surface plasmon resonance (SPR) assay were established for this purpose.

Chain of recombinant EED (O75530 76-441 limits assumed): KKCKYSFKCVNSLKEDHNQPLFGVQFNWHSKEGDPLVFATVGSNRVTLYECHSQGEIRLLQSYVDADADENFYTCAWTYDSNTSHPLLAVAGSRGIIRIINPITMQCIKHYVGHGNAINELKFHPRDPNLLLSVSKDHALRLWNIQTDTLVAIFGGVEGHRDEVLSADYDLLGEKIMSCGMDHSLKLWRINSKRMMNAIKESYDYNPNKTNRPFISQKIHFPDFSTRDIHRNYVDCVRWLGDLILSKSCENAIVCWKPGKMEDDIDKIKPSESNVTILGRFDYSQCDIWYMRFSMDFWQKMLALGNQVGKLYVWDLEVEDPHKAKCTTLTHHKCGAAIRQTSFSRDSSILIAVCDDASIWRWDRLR
T2 sequence (O75530 whole entry, the tested form may be a part): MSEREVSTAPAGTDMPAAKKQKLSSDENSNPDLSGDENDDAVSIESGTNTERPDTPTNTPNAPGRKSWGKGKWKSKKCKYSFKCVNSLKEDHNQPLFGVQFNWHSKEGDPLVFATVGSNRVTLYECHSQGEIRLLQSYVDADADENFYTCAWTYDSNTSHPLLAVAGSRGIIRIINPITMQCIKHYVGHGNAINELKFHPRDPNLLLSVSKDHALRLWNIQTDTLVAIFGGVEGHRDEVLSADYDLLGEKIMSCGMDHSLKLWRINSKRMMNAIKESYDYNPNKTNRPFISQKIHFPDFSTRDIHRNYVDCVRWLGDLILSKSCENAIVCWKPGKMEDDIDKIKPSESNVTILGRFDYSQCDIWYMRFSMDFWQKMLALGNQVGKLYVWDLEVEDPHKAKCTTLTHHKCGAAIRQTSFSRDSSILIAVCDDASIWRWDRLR
Method for His-EED (residues 1–441): The data were then fit to a dose response equation using the program Helios (Novartis) to determine the IC50 values.
Each compound was counterscreened to determine if it interfered with the AlphaScreen beads. Compounds were diluted as described in the preceding section, and the assay was performed by adding 12 μL of 10 nM Biotin-miniPEG-His6 peptide in the above buffer and incubated for 20 min at room temperature prior to addition of the acceptor and donor beads. The plates were then incubated for 1 h at room temperature in the dark before being read on the EnVision system (Perkin Elmer).
In addition to the enzymatic assay, we also developed a binding assay to measure the interaction between His-tagged recombinant EED protein and a biotinylated H3K27me3 peptide using the Amplified Luminescence Proximity Homogenous Assay Screen (AlphaScreen) [33, 34]. Binding of Biotin-H3K27me3 peptide to His-EED protein brings the streptavidin-coated donor beads and anti-His antibody coated acceptor beads into close proximity and thus a luminescent signal is produced. Disruption of EED-H3K27me3 interaction by H3K27me3 pocket binders will result in the signal reduction.

For the compound `N#Cc1c2c(c3nncn3c1NCc1ccco1)CN(Cc1ccccc1)CC2` [EED162], the IC50 is more than 100 µM on NSD2 and 0.32 µM on His-EED (residues 1–441). Consider `COc1cccc(CC2CC3Cc4c(cccc4OC)CC3N(C)C2)c1` (stereo not drawn) [EED210], for which the IC50 on NSD2 was more than 100 µM. Besides, at recombinant EED, the “enthalpy change (ITC)” value was -20.14 ± 5.29 kcal/mol, the “entropy change (ITC)” value is on record as -46.5 cal/mol/deg and the “stoichiometry of binding N (ITC)” value is reported as 0.78. On to `COc1cc(-c2cc3n(c(=N)c2C#N)CCc2cc4c(cc2-3)OCO4)ccc1OC(C)C` [EED396], for which, at NSD2, the IC50 was more than 100 µM. On the same count and under the same terms, in the case of `Cc1cc(C)n(-c2cc(N3CCc4ccccc4C3)ccc2[N+](=O)[O-])n1` [EED666] it was more than 100 µM. Still for that read-out and setting: the result for `COc1ccccc1CN1CC(c2cn(C)c3ccccc23)C(N(C)C)C1` (stereo not drawn) [EED709] reads more than 100 µM.
